{"source": "ChEMBL document CHEMBL1125481", "about": "“N-[4-[[(3,4-dihydro-4-oxo-1,2,3-benzotriazin-6-yl)methyl]amino]benzoyl]-L-glutamic acid, a novel A-ring analogue of 2-desamino-5,8-dideazafolic acid” (J Med Chem, 1992)", "molecules": {"B1": {"name": "Folylpolyglutamate synthase, mitochondrial (Mus musculus), P48760 (protein)", "chain": "MSWARSRLCSTLSLAAVSARGATTEGAARRGMSAWPAPQEPGMEYQDAVRTLNTLQTNASYLEQVKRQRSDPQAQLEAMEMYLARSGLQVEDLNRLNIIHVTGTKGKGSTCAFTERILRNYGLKTGFFSSPHMVQVRERIRINGKPISPELFTKHFWCLYNQLEEFKDDSHVSMPSYFRFLTLMAFHVFLQEKVDLAVVEVGIGGAFDCTNIIRKPVVCGVSSLGIDHTSLLGDTVEKIAWQKGGIFKPGVPAFTVVQPEGPLAVLRDRAQQIGCPLYLCPPLEALEEVGLPLSLGLEGAHQRSNAALALQLAHCWLERQDHQDIQELKVSRPSIRWQLPLAPVFRPTPHMRRGLRDTVWPGRTQILQRGPLTWYLDGAHTTSSVQACVHWYRQSLERSKRTDGGSEVHILLFNSTGDRDSAALLKLLQPCQFDYAVFCPNVTEVSSIGNADQQNFTVTLDQVLLRCLQHQQHWNGLAEKQASSNLWSSCGPDPAGPGSLLLAPHPPQPTRTSSLVFSCISHALLWISQGRDPIFQPQSLPRNLLNHPTANSGASILREAAAIHVLVTGSLHLVGGVLKLLDPSMSQ"}}, "key": {"L1210 [1]": {"tested_on": "L1210", "test": "Growth inhibitory activity on L1210 cell culture in the presence of 5.6 uM thymidine(dThd)", "format": "functional, cell-based", "conditions": "Mus musculus"}, "L1210 [2]": {"tested_on": "L1210", "test": "Growth inhibitory activity on mouse L1210 cell culture", "format": "functional, cell-based"}, "L1210 [3]": {"tested_on": "L1210", "test": "Growth inhibitory activity on L1210 cell culture in the presence of 32 uM hypoxanthine (Hx)", "format": "functional, cell-based", "conditions": "Mus musculus"}, "Thymidylate synthase": {"molecular_target": "Thymidylate synthase (Mus musculus, UniProt P07607)", "sequence (P07607 whole entry)": "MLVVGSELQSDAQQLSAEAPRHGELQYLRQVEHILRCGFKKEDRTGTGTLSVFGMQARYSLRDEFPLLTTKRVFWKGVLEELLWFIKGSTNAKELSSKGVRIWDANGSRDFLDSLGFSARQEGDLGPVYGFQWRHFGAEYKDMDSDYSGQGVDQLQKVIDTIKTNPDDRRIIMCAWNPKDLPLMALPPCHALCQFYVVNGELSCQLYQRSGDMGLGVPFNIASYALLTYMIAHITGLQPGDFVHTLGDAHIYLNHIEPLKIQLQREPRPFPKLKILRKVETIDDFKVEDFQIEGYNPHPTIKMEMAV", "test": "Compound was tested for the inhibition of recombinant mouse thymidylate synthase, competitive with 5,10-methylenetetrahydrofolate as variable substrate"}, "[4]": {"molecular_target": "Thymidylate synthase (Mus musculus) (UniProt P07607)", "sequence (P07607 whole entry, looked up)": "as the sequence (P07607 whole entry) above", "test": "Binding affinity towards thymidylate synthase (TS)"}, "[5]": {"substrate": "Nc1nc(O)c2cc(CNc3ccc(C(=O)NC(CCC(=O)O)C(=O)O)cc3)ccc2n1", "test": "(§1) Kinetic characteristic of compound for mouse liver FPGS(in vitro)"}, "[6]": {"substrate": "O=C(O)CCC(NC(=O)c1ccc(NCc2ccc3ncnc(O)c3c2)cc1)C(=O)O", "test": "as §1"}, "[7]": {"substrate": "O=C(O)CCC(NC(=O)c1ccc(NCc2ccc3nnnc(O)c3c2)cc1)C(=O)O"}}}
{"molecule": "O=C(O)CCC(NC(=O)c1ccc(NCc2ccc3nnnc(O)c3c2)cc1)C(=O)O", "note": "(stereo not given)", "values": [{"measurement": "IC50", "setting": "L1210 [1]", "result": 890, "unit": "nM"}, {"measurement": "IC50", "setting": "L1210 [2]", "result": 520, "unit": "nM"}, {"measurement": "IC50", "setting": "L1210 [3]", "result": 970, "unit": "nM"}, {"measurement": "Ki", "setting": "Thymidylate synthase", "result": 2300, "unit": "nM"}, {"measurement": "Ki", "setting": "[4]", "result": 2300, "unit": "nM"}]}
{"molecule": "O=C(O)CCC(NC(=O)c1ccc(NCc2ccc3ncnc(O)c3c2)cc1)C(=O)O", "note": "(stereo not given)", "values": [{"measurement": "IC50", "setting": "L1210 [2]", "result": 430, "unit": "nM"}]}
{"molecule": "Nc1nc(O)c2cc(CNc3ccc(C(=O)NC(CCC(=O)O)C(=O)O)cc3)ccc2n1", "note": "(stereo not given) [DIDEAZAFOLATE]", "values": [{"measurement": "IC50", "setting": "L1210 [2]", "result": 2700, "unit": "nM"}]}
{"molecule": "B1", "values": [{"measurement": "Km", "setting": "[5]", "result": 6.4, "unit": "µM"}, {"measurement": "Km", "setting": "[6]", "result": 4.8, "unit": "µM"}, {"measurement": "Km", "setting": "[7]", "result": 28, "unit": "µM"}]}
